Experimental data as given in BindingDB's records for doi:10.1016/j.bmcl.2006.10.091 (Bristol Myers Squibb, 2007).

Experiment: Inhibition of MDC-induced chemotaxis in L1.2 cells expressing CCR4

IC50: 5 µM
SMILES: CCN(CC)C(C)CCCNc1nccc(NCc2ccc(Cl)cc2Cl)n1 (stereo unspecified) [N4-(2,4-dichlorobenzyl)-N2-(4-(diethylamino)pentyl)pyrimidine-2,4-diamine]
